Earlier results as cited in patent EP0920301B1, “THERAPEUTIC OR HYGIENIC COMPOSITIONS WITH CONTROLLED AND PROLONGED RELEASE OF THE ACTIVE PRINCIPLE(S), IN PARTICULAR FOR OPHTHALMIC USE” (priority 1997, dated 1998).

Test system: la plupart des agents infectieux
Conditions: stated threshold, source not given

Substance: sulfate de gentamicine
- concentration inhibitrice minimale: 4 µg/mL
